The values that follow come from ChEMBL document CHEMBL3779877, “Anticancer activity studies of cubebin isolated from Piper cubeba and its synthetic derivatives” (Bioorg Med Chem Lett, 2016).

Structures are written as SMILES. Activity calls are given as the source filed them. The rule behind the calls is not given here.

Test [1] has as its system K562. Description: Cytotoxicity against human K562 cells assessed as reduction in viable cells after 48 hrs by MTT assay. Type of test: functional, cell-based. To be noted: K562, 48 h. Background: Tetrazolium assays rely on reduction of a dye to a coloured formazan, in cell work by metabolically active cells.
The subject of test [2] is A549. Description: Induction of apoptosis in human A549 cells assessed as membrane blebbing at cytotoxic IC50 after 48 hrs by AO/EB dual staining based fluorescent microscopic analysis. Type of test: functional, cell-based.
In test [3] the test system is HT-29. Description: Cytotoxicity against human HT-29 cells assessed as reduction in viable cells after 48 hrs by MTT assay. Type of test: functional, cell-based. Conditions: HT-29, 48 h.
For test [4], the system named is KB. Nature of the test: Cytotoxicity against human KB cells assessed as reduction in viable cells after 48 hrs by MTT assay. Type of test: functional, cell-based.
For test [5], the system named is A549. Nature of the test: Induction of apoptosis in human A549 cells assessed as fragmented nuclei at cytotoxic IC50 after 48 hrs by Hoechst 33342 staining based fluorescent microscopic analysis. Type of test: functional, cell-based.
Test [6] has as its system A549. Nature of the test: Cytotoxicity against human A549 cells assessed as reduction in viable cells after 48 hrs by MTT assay. To be noted: A549, 48 h. Type of test: functional, cell-based.
Test [7] in a line: Cytotoxicity against human HCT116 cells assessed as reduction in viable cells after 48 hrs by MTT assay. Type of test: functional, cell-based. Conditions: HCT-116, 48 h.
The subject of test [8] is A549. Nature of the test: Induction of apoptosis in human A549 cells assessed as condensed nuclei at cytotoxic IC50 after 48 hrs by Hoechst 33342 staining based fluorescent microscopic analysis. Type of test: functional, cell-based.
Test [9] has as its system A549. Description: Induction of apoptosis in human A549 cells assessed as cell shrinkage at cytotoxic IC50 after 48 hrs by inverted microscopic analysis. Type of test: functional, cell-based.
Test [10] deals with SiHa. Nature of the test: Cytotoxicity against human SiHa cells assessed as reduction in viable cells after 48 hrs by MTT assay. Type of test: functional, cell-based.
The subject of test [11] is A549. Nature of the test: Induction of apoptosis in human A549 cells assessed as detached cells at cytotoxic IC50 after 48 hrs by inverted microscopic analysis. Type of test: functional, cell-based.
For test [12], the system named is A549. Description: Induction of apoptosis in human A549 cells assessed as chromosomal condensation at cytotoxic IC50 after 48 hrs by AO/EB dual staining based fluorescent microscopic analysis. Type of test: functional, cell-based.
The test system of test [13] is A549. Description: Induction of apoptosis in human A549 cells assessed as loss of normal nuclear architecture at cytotoxic IC50 after 48 hrs by inverted microscopic analysis. Type of test: functional, cell-based.
Test [14] concerns A549. Nature of the test: Induction of apoptosis in human A549 cells assessed as cell shrinkage at cytotoxic IC50 after 48 hrs by AO/EB dual staining based fluorescent microscopic analysis. Type of test: functional.
Test [15] concerns KB. Description: Induction of apoptosis in human KB cells assessed as cell shrinkage at cytotoxic IC50 after 48 hrs by AO/EB dual staining based fluorescent microscopic analysis. Type of test: functional.
The test system of test [16] is KB. Description: Induction of apoptosis in human KB cells assessed as detached cells at cytotoxic IC50 after 48 hrs by inverted microscopic analysis. Type of test: functional, cell-based.
Test [17] concerns KB. Description: Induction of apoptosis in human KB cells assessed as cell shrinkage at cytotoxic IC50 after 48 hrs by inverted microscopic analysis. Type of test: functional, cell-based.
Test [18] has as its system KB. Nature of the test: Induction of apoptosis in human KB cells assessed as fragmented nuclei at cytotoxic IC50 after 48 hrs by Hoechst 33342 staining based fluorescent microscopic analysis. Type of test: functional, cell-based.
In test [19] the test system is KB. Description: Induction of apoptosis in human KB cells assessed as condensed nuclei at cytotoxic IC50 after 48 hrs by Hoechst 33342 staining based fluorescent microscopic analysis. Type of test: functional, cell-based.
The subject of test [20] is KB. Description: Induction of apoptosis in human KB cells assessed as membrane blebbing at cytotoxic IC50 after 48 hrs by AO/EB dual staining based fluorescent microscopic analysis. Type of test: functional, cell-based.
Test [21] concerns KB. Nature of the test: Induction of apoptosis in human KB cells assessed as loss of normal nuclear architecture at cytotoxic IC50 after 48 hrs by inverted microscopic analysis. Type of test: functional, cell-based.
Test [22] deals with KB. Description: Induction of apoptosis in human KB cells assessed as chromosomal condensation at cytotoxic IC50 after 48 hrs by AO/EB dual staining based fluorescent microscopic analysis. Type of test: functional, cell-based.
Test [23] is described as follows: Cytotoxicity against human HCT116. Conditions: HCT-116. Type of test: functional.

One may read the IC50 as the midpoint of a concentration-inhibition curve. As to `COc1ccc(CNC(=O)[C@@H](Cc2ccc3c(c2)OCO3)[C@@H](CO)Cc2ccc3c(c2)OCO3)cc1`, the IC50 was 8.37 µM in [1]; 51.1 µM in test [3]; 9.17 µM in test [4]; 6.61 µM in test [6]; 46.1 µM in test [7]; 91.5 µM in [10]. Besides, the outcome in test [2], in [5], in test [8], in test [9], in [11] and in test [12] was Active. Besides, the outcome in test [13] and in test [14] was Active.
For `O=C(O)CC1OC[C@@H](Cc2ccc3c(c2)OCO3)[C@@H]1Cc1ccc2c(c1)OCO2` (some centres not stated), the IC50 in test [1] was 7.94 µM; in test [3], above 100 µM; in test [4], 73.9 µM; in test [6] it was 52.9 µM; in [7], above 100 µM; in test [10] it was above 100 µM.
Turning to `OC[C@@H](Cc1ccc2c(c1)OCO2)[C@@H](CO)Cc1ccc2c(c1)OCO2`, the IC50 in test [1] is 30.2 µM; in test [3], above 100 µM; in test [4] it was 7.82 µM; in test [6] it was 75.5 µM; in test [7] it was 85.3 µM; in test [10], above 100 µM.
With `O=C(NCc1ccc(F)cc1)[C@@H](Cc1ccc2c(c1)OCO2)[C@@H](CO)Cc1ccc2c(c1)OCO2`, the 50% inhibitory concentration (IC50) in test [1] is 7.76 µM; in test [3], 24.6 µM; in test [4], 33.8 µM; in test [6], 8.94 µM; in test [7], 34.1 µM; in [10] it was 80 µM.
In the case of `OC1OC[C@@H](Cc2ccc3c(c2)OCO3)[C@@H]1Cc1ccc2c(c1)OCO2` (some centres not stated), the IC50 was 8.66 µM in test [1]; 45.2 µM in test [3]; 8.16 µM in test [4]; 8.3 µM in [6]; 45.1 µM in test [7]; above 100 µM in test [10].
Consider `O=C1OC[C@@H](Cc2ccc3c(c2)OCO3)[C@@H]1Cc1ccc2c(c1)OCO2`, for which the IC50 in [1] is 9.07 µM; in test [3], 35.7 µM; in test [4] it was 7.68 µM; in [6], 7.86 µM; in test [7], 72.6 µM; in test [10], 68.4 µM. Also, the result in test [2], in test [15], in test [5], in test [16], in test [8] and in test [17] was Active. Also, the outcome in test [18], in test [19], in test [9], in test [20], in [21] and in [11] was Active. Further, the result in [12], in test [22], in [13] and in test [14] was Active.
Turning to `COc1cc([C@@H]2c3cc4c(cc3[C@@H](O[C@@H]3O[C@@H]5CO[C@@H](C)O[C@H]5[C@H](O)[C@H]3O)[C@H]3COC(=O)[C@H]23)OCO4)cc(OC)c1O` [ETOPOSIDE], in [1], the half-inhibitory concentration (IC50) came to 4.39 µM.
Consider `O=C(NCCO)[C@@H](Cc1ccc2c(c1)OCO2)[C@@H](CO)Cc1ccc2c(c1)OCO2`, for which the IC50 in [1] was 87.4 µM; in test [3] it was 51.1 µM; in test [4], 7.96 µM; in [6], above 100 µM; in test [7], 45.2 µM; in test [10], 85.2 µM.
`COc1cccc(CNC(=O)[C@@H](Cc2ccc3c(c2)OCO3)[C@@H](CO)Cc2ccc3c(c2)OCO3)c1`: the IC50 in [1] was 7.98 µM; in [3] it was 25.5 µM; in test [4] it was 80.5 µM; in test [6] it was 7.28 µM; in test [7], above 100 µM; in test [10], 25.3 µM.
With `O=C(NCc1ccccc1)[C@@H](Cc1ccc2c(c1)OCO2)[C@@H](CO)Cc1ccc2c(c1)OCO2`, the 50% inhibitory concentration (IC50) in [1] was 8.6 µM; in [3], 68 µM; in test [4] it was 9.16 µM; in test [6], 10.8 µM; in [7] it was 93.5 µM; in test [10] it was above 100 µM.
Take `CC(C)CCN1C(=O)[C@@H](Cc2ccc3c(c2)OCO3)[C@H](Cc2ccc3c(c2)OCO3)C1=O`: the half-inhibitory concentration (IC50) in test [1] was above 100 µM; in test [3] it was 66.2 µM; in [4], 7.71 µM; in test [6], above 100 µM; in [7], 67.7 µM; in [10], 89.3 µM.
For `O=C1[C@@H](Cc2ccc3c(c2)OCO3)[C@H](Cc2ccc3c(c2)OCO3)C(=O)N1Cc1ccc(F)cc1`, the half-inhibitory concentration (IC50) in test [1] is above 100 µM; in [3], 72.1 µM; in test [4] it was 8.95 µM; in test [6], above 100 µM; in [7], above 100 µM; in test [10] it was above 100 µM.
In the case of `COc1ccc(CN2C(=O)[C@@H](Cc3ccc4c(c3)OCO4)[C@H](Cc3ccc4c(c3)OCO4)C2=O)cc1`, the IC50 in [1] is 8.69 µM; in test [3] it was 72.6 µM; in [4], 9.13 µM; in test [6] it was 45.5 µM; in test [7], above 100 µM; in test [10], 33.4 µM.
Regarding `O=C1[C@@H](Cc2ccc3c(c2)OCO3)[C@H](Cc2ccc3c(c2)OCO3)C(=O)N1Cc1ccccc1`, the IC50 in [1] is 8.88 µM; in [3] it was 71.8 µM; in test [4], 7.36 µM; in [6], 58.6 µM; in test [7] it was 65.4 µM; in [10], above 100 µM.
In turn, `COc1cc([C@@H]2c3cc4c(cc3[C@H](O)[C@H]3COC(=O)[C@H]23)OCO4)cc(OC)c1OC` [PODOFILOX] displayed an IC50 in test [23] of 0.01 µM.
Turning to `O=C(NCc1c[nH]c2ccccc12)[C@@H](Cc1ccc2c(c1)OCO2)[C@@H](CO)Cc1ccc2c(c1)OCO2`, the IC50 in test [1] is above 100 µM; in test [3], 52.1 µM; in [4], 6.38 µM; in test [6], above 100 µM; in [7], above 100 µM; in test [10] it was above 100 µM. For the same molecule, the outcome in [15], in test [16], in test [17], in test [18], in test [19] and in [20] was Active. Also, the outcome in test [21] and in test [22] was Active.
With `O=C(NCCc1ccccc1)[C@@H](Cc1ccc2c(c1)OCO2)[C@@H](CO)Cc1ccc2c(c1)OCO2`, the IC50 in test [1] amounted to 7.91 µM; in [3], 58.9 µM; in test [4] it was 7.09 µM; in test [6] it was 7.28 µM; in test [7], 7.83 µM; in [10], 57.5 µM.
As to `CC(C)CCNC(=O)[C@@H](Cc1ccc2c(c1)OCO2)[C@@H](CO)Cc1ccc2c(c1)OCO2`, the IC50 was 48.8 µM in test [1]; 23.8 µM in test [3]; 8.94 µM in test [4]; 8.75 µM in [6]; 66.8 µM in test [7]; 95.8 µM in test [10].
Turning to `O=C1[C@@H](Cc2ccc3c(c2)OCO3)[C@H](Cc2ccc3c(c2)OCO3)C(=O)N1CCc1ccccc1`, the IC50 in test [1] was 9.15 µM; in test [3] it was 66.5 µM; in [4], 62.6 µM; in test [6] it was above 100 µM; in test [7] it was 64 µM; in test [10], 96.3 µM.
In the case of `O=C(NCc1ccc(C(F)(F)F)cc1)[C@@H](Cc1ccc2c(c1)OCO2)[C@@H](CO)Cc1ccc2c(c1)OCO2`, the IC50 was 8.86 µM in test [1]; 64.9 µM in [3]; 19.2 µM in test [4]; above 100 µM in test [6]; above 100 µM in [7]; 73.7 µM in test [10].
